“And” between values parts separate entries of the source, which are not always exact repeats. Identical values can stand only once. Like-named read-outs stand apart in the source and are kept apart here.
How the values were obtained:
[1] = test system: HCT-116 (colorectal carcinoma); assay: MTS growth inhibition assay, HCT-116; assay type: cell-based, human
Protocol: In Table 1, the various compounds listed were tested for induction of death in various malignant human cell lines and were compared to the commercial HAT inhibitor garcinol (0.2-500 μM). Specifically, Table 1 describes the summary of the growth inhibitory effect (in μM) of nine novel bisamidoximes on six malignant cell lines, as measured by MTS assay. MTS assay is a colorimetric based cytotoxicity assay that determines the number of viable cells. The numbers in the table represent Growth Inhibition GI50 (±standard deviation), which is the concentration of the drug where 50% of the cells are killed. Garcinol, a known HAT inhibitor, was used as a positive control. The cell lines used were: HCT-116 (colorectal carcinoma), DU-145 (prostate carcinoma), SK-OV-3 (ovarian adenocarcinoma), HLF-a (lung epidermoid carcinoma), MCF-7 & MDA-MB-231 (breast adenocarcinoma) and NHDF (normal human dermal fibroblasts). The cells were treated with compounds JJMB 1-9 for 48 hrs (MCF-7 for 72 hrs) at various concentrations ranging from 0.2 μM to 500 μM. One-way ANOVA was performed to assess the differences between the groups. Differences in means between control and treatment groups were analyzed by post-hoc Dunnett's test, p<0.05. Data is reported as the mean ±SD, n =3. […] The compounds tested (JJMB5, JJMB6, JJMB7, and JJMB9) could efficiently kill several malignant cell-lines in concentration range of micromolars. (See Table 1). […] From these tests it is clear that the compounds affected several cells lines of the three major types of cancers: breast, lung, and colon. […]
(§1) Combination studies of bisamidoximes and cisplatin were performed on human breast cancer cell line MCF-7, human colon cancer cell line HCT-116, and murine mammary malignant cell lines measured by MTS assay. The cells were treated with novel bisamidoximes JJMB 5, 7, and 9, for 48 hours (72 hours for MCF-7), individually or in combination with cisplatin. Growth Inhibition (GI50) was measured. *—Indicates a significant difference when the drugs were used in combination with cisplatin compared to when the drugs were used individually as determined by one-way ANOVA, p≤0.05.

[2] = test system: MCF-7 (breast adenocarcinoma); assay: MTS growth inhibition assay, MCF-7; assay type: cell-based, human
Protocol: (§2) In Table 1, the various compounds listed were tested for induction of death in various malignant human cell lines and were compared to the commercial HAT inhibitor garcinol (0.2-500 μM). Specifically, Table 1 describes the summary of the growth inhibitory effect (in μM) of nine novel bisamidoximes on six malignant cell lines, as measured by MTS assay. MTS assay is a colorimetric based cytotoxicity assay that determines the number of viable cells. The numbers in the table represent Growth Inhibition GI50 (±standard deviation), which is the concentration of the drug where 50% of the cells are killed. Garcinol, a known HAT inhibitor, was used as a positive control. The cell lines used were: HCT-116 (colorectal carcinoma), DU-145 (prostate carcinoma), SK-OV-3 (ovarian adenocarcinoma), HLF-a (lung epidermoid carcinoma), MCF-7 & MDA-MB-231 (breast adenocarcinoma) and NHDF (normal human dermal fibroblasts). The cells were treated with compounds JJMB 1-9 for 48 hrs (MCF-7 for 72 hrs) at various concentrations ranging from 0.2 μM to 500 μM. One-way ANOVA was performed to assess the differences between the groups. Differences in means between control and treatment groups were analyzed by post-hoc Dunnett's test, p<0.05. Data is reported as the mean ±SD, n =3. […] The compounds tested (JJMB5, JJMB6, JJMB7, and JJMB9) could efficiently kill several malignant cell-lines in concentration range of micromolars. (See Table 1). […] From these tests it is clear that the compounds affected several cells lines of the three major types of cancers: breast, lung, and colon.
as §1, with “studies” for “studies of bisamidoximes and cisplatin were”, “MCF-7 and” for “MCF-7,”, “HCT 116 were” for “HCT-116, and murine mammary malignant cell lines”, “combination.” for “combination with cisplatin.”, “combination” for “combination with cisplatin”
as §1

[3] = test system: HLF-a (lung epidermoid carcinoma); assay: MTS growth inhibition assay, HLF-a; assay type: cell-based; settings: Homo sapiens, 48 hrs, 0.2-500 μM, mean ±SD n=3, read-out: Growth Inhibition GI50 (±standard deviation), Lung (HLF-A)
Protocol: as §2

[4] = test system: MDA-MB-231 (breast adenocarcinoma); assay: MTS growth inhibition assay, MDA-MB-231; assay type: cell-based; settings: Homo sapiens, 48 hrs, 0.2-500 μM, mean ±SD n=3, read-out: Growth Inhibition GI50 (±standard deviation), Breast (MDA-MB-231)
Protocol: as §2

[5] = test system: DU-145 (prostate carcinoma); assay: MTS growth inhibition assay, DU-145; assay type: cell-based; settings: Homo sapiens, 48 hrs, 0.2-500 μM, mean ±SD n=3, read-out: Growth Inhibition GI50 (±standard deviation), Prostate (DU-145)
Protocol: as §2

[6] = test system: SK-OV-3 (ovarian adenocarcinoma); assay: MTS growth inhibition assay, SK-OV-3; assay type: cell-based; settings: Homo sapiens, 48 hrs, 0.2-500 μM, mean ±SD n=3, read-out: Growth Inhibition GI50 (±standard deviation), Ovarian (SKOV-3)
Protocol: as §2

[7] = MTS growth inhibition assay, NHDF; assay type: cell-based; settings: NHDF (normal human dermal fibroblasts), 0.2-500 μM, read-out: Growth Inhibition GI50 (±standard deviation), Normal (NHDF)
Protocol: as §2

[8] = test system: murine mammary carcinoma cells 4T1; assay: Growth inhibition of murine mammary cancer cell line 4T1; assay type: cell-based; settings: Mus musculus; 4T1 cells, single drugs; read-out: growth inhibition 50% (GI50) on 4T1 cells
EpH4 cells = assay: Sensitivity of EpH4 cells to bisamidoximes; assay type: cell-based; settings: in vitro cell culture
Protocol: The efficacy of killing malignant cells in mice and slowing down the tumors or eradicating them can be indicative to these compounds' efficacy in humans. To check if the bisamidoximes are potent in mice, breast cancer cells were identified that could be implanted in female mice mammary fat pads. The identified cells were tested to see if they are sensitive to bisamidoximes in vitro (in tube/cell culture).
(§3) At the next stage, we needed to determine whether the mice would tolerate the drugs, or in other words, what would be the maximum tolerated dose (MTD) of each of the bisamidoximes. The three bisamidoximes JJMB5, JJMB7, and JJMB9, as well as a control group of only the vehicle (the solvent used to dissolve the drugs) were injected intraperitoneally (IP) to mice. The protocol included injection of the desired concentration of bisamidoxime over 5 consecutive days, two days of break, and another cycle of 5 successive days of injections.

[9] = Maximum tolerated dose in mice, IP; settings: mouse, in vivo, BALB/c strain, 5 consecutive days, two days break, another 5 days
Protocol: as §3

[10] = test system: TSA-induced hyperacetylation; assay: Reversion of HDAC-inhibitor (TSA)-induced hyperacetylation; assay type: cell-based, human; settings: HCT-116, listed as JJM6
Protocol: To further understand the mechanism of action of the four active compounds (JJMB5, JJMB6, JJMB7, and JJMB9), we performed several experiments that are summarized in Table 2. All the assays were performed on HCT-116 (a colorectal carcinoma), since all of the four specific potent drugs could induce death of these cells. […] Another HAT, GCN5, was not inhibited by any of the compounds. JJMB5, JJM6 and JJMB9 could reverse the activity of an HDAC inhibitor (TSA); thus the hyperacetylation induced by TSA could be reversed by these compounds.
This is another indication that the three compounds, JJMB5, JJMB6, and JJMB9 are HAT inhibitors.

[11] = test system: 4T1 breast carcinoma cells implanted in mammary fat pad; assay: 4T1 mammary carcinoma tumor volume in BALB/c mice; assay type: in vivo, mouse; settings: 4T1 in mammary fat pad, two 5-day cycles
Protocol: The bisamidoxime JJMB7 was studied to see if the compound can lower the rate of tumor growth and the number and size of metastases in mice. […] FIG. 2 depicts a graph of mammary tumor volumes in JJMB7 treated and untreated control BALB/c mice. In the experiment, six-week-old BALB/c mice were implanted with 10,000 4T1 breast carcinoma cells in the mammary fat pad (MFP). […] JJMB7 was administered for five consecutive days, followed by a two day break, and another five consecutive days of injections. Mice were weighed every day and observed for signs of pain and discomfort. Tumors were visible 7 days after implantation, and tumor dimensions were measured, and volumes were calculated until day-24, when mice were euthanized. A One-Way Repeated Measures ANOVA was performed to determine a statistical significance (p≤0.05).
The murine mammary carcinoma 4T1 cells were implanted in the mammary fat pad of BALB/c female mice (10,000 cells per mice) and a day later we started a protocol of two 5-day cycles (with 2 days break) of chemotherapy delivered IP. The amidoximes were delivered at their MTD level—JJMB5 with 0.26 mg/kg, and JJMB9 with 0.78 mg/kg. One-Way Repeated-Measure ANNOVA was performed to show the significance (p≤0.05, n=10).

[12] = Mouse Liver Microsomes stability; assay type: in vitro ADME; settings: Mouse Liver Microsomes (FIG. 5); read-out: t1/2 in Mouse Liver Microsomes
[13] = 48 hours, individually or in combination with cisplatin, read-out: Growth Inhibition (GI50), HCT-116, cisplatin combination study
[14] = Homo sapiens, HCT-116, 48 hrs, 0.2-500 μM, mean ±SD n=3, * = highly purified, more potent batches, read-out: Growth Inhibition GI50 (±standard deviation), Colon (HCT-116)
[15] = Homo sapiens, MCF7, 72 hours, 0.2-500 μM, mean ±SD n=3, * = highly purified, more potent batches, read-out: Growth Inhibition GI50 (±standard deviation), Breast (MCF-7), 72 hours
[16] = Homo sapiens, MCF7, 72 hours, individually or in combination with cisplatin, read-out: Growth Inhibition (GI50), MCF-7, cisplatin combination study
[17] = Homo sapiens, MCF7, 72 hours, individually or in combination, read-out: Growth Inhibition (GI50), MCF-7, bisamidoxime combination study

| Compound | GI50 [1, 13] | GI50 ([2]; 72 hours, individually or in combination with cisplatin, read-out: Growth Inhibition (GI50), MCF-7, cisplatin combination study) | GI50 [1, 14] [µM] | GI50 [3] [µM] | GI50 [2, 15] [µM] | GI50 [4] [µM] | GI50 [5] [µM] | GI50 [6] [µM] | GI50 at 48 h [7] [µM] | GI50 [2, 16] [µM] | GI50 [2, 17] [µM] | GI50 [8] [µM] | sensitivity of EpH4 cells to bisamidoximes (EpH4 cells) | MTD [9] [mg/kg] | Reversion of HDAC-inhibitor-induced hyperacetylation [10] | mammary carcinoma tumor volume (FIG. 2) ([11]; BALB/c mice, 1.56 mg/kg IP, until day-24) | breast cancer tumor volume (FIG. 3) ([11]; BALB/c female mice, 0.78 mg/kg IP, p≤0.05, n=10) | half-life [12] [min] |
| --- | --- | --- | --- | --- | --- | --- | --- | --- | --- | --- | --- | --- | --- | --- | --- | --- | --- | --- |
| N.N.[Cl][Pt][Cl] [Cisplatin, cisplatin, reference compound] | 68.6 µM and 73 µM and 66.3 µM | 40.8 µM and 48.5 µM | – | – | – | – | – | – | – | – | – | – | – | – | – | – | – | – |
| C=C(C)[C@@H](CC=C(C)C)C[C@@]12C[C@@H](CC=C(C)C)C(C)(C)[C@@](CC=C(C)C)(C(=O)C(C(=O)c3ccc(O)c(O)c3)=C1O)C2=O [Garcinol, garcinol, reference compound] | – | – | 39 ± 8 | 27 ± 4 | 55 ± 7 | 44 ± 4 | 55 ± 7 | 43 ± 5 | > 500 | – | – | – | – | – | – | – | – | – |
| Cc1ccc(/C(=N/O)NCCCN/C(=N\O)c2ccc(C)cc2)cc1 [JJMB5] | 19.3 ± 2.4 µM | – | 8.5 | 335 ± 4 | 33.2 | 125 ± 4 | > 500 | > 500 | > 500 | 33.2 ± 6 | 28.2 ± 7.1 | 6.3 ± 2.3 | highly sensitive | 0.26 | – | – | – | – |
| Cc1ccc(/C(=N/O)NCCCCN/C(=N\O)c2ccc(C)cc2)cc1 [JJMB6] | – | – | 17 ± 4 | > 500 | > 500 | > 500 | > 500 | > 500 | > 500 | – | – | – | – | – | could reverse | – | – | – |
| Cc1ccc(/C(=N/O)NCCN/C(=N\O)c2ccc(C)cc2)cc1 [JJMB7] | 16.2 ± 2 µM | – | 6.2 | 275 ± 3 | > 500 | 85 ± 3 | > 500 | > 500 | > 500 | – | – | 14.7 ± 6.3 | highly sensitive | 1.56 | – | significantly reduce | – | – |
| Cc1ccc(/C(=N/O)NCCCN(C)CCCN/C(=N\O)c2ccc(C)cc2)cc1 [JJMB9] | – | – | 16 | 40 ± 7 | 8.5 | > 500 | > 500 | > 500 | > 500 | 8.5 ± 2.5 | 5.3 ± 2.7 | 33.3 ± 2.4 | highly sensitive | 0.78 | – | – | significantly reduced | 13 |
